We go through two compounds from US8691790B2, “Therapy of neurological inflammatory diseases with (5'-deoxy-5'-adenosyl) cobamamide, recombinant human growth hormone, interleukins IL-1, IL-6, IL-11, epidermal growth factor, and physiotherapy” (priority 2009, dated 2014).

Entries after “also recorded” stand apart in the source; their conditions may differ.

Assay [1] relates to clinically definite MS patient in the Secondary Progressive stage of MS (SPMS). Kind of assay: Scoping experiment in therapy with daily AdoCbl injections in one MS patient. The class given is in vivo, human. The source says: The current patent, by Boucher, teaches the effective use of AdoCbl, by itself, for therapy of MS and other neurological inflammatory diseases and neurodegenerative diseases. […] Approximately 10 years ago the MS Patient was deemed to be in the Secondary Progressive Multiple Sclerosis (SPMS) stage due to the unremitting accumulation of disability. The MS Patient had loss of memory, cognitive impairment, loss of balance, fatigue, nocturia, not able to lift right foot from the floor, not able to raise right hand, not able to write with the right hand or to use a computer keyboard with the right hand, not able to grip with the right hand, not able to eat with a fork in the right hand, had poor heat tolerance, and was marginally ambulatory with a rollator. The MS patient was more affected on the right side than on the left, which prevented the use of a manual wheelchair. A scoping experiment in therapy with daily injections of 1000 mcg of AdoCbl was initiated. […] After three days, the injection size was increased to 5000 mcg of AdoCbl daily. The MS Patient had been making daily injections of 20 mg Copaxone, but these were stopped for about two months when the scoping experiment with daily injections of AdoCbl was initiated. […] The current patent, by Boucher, teaches that AdoCbl, by itself, provides effective therapy of MS and other inflammatory diseases, that AdoCbl facilitates remyelination, that AdoCbl stops secondary progression of disability in MS and allows extensive recovery from the symptoms of MS. The scoping experiment in therapy with AdoCbl was intended as a test of the etiological hypothesis that the enzyme ATP: Cob (I) alamin adenosyltransferase (ATR) in the CSF was a target of the immune system, which was a major factor in the development of MS. The results of the scoping experiment in therapy strongly support the proposed etiological hypothesis. There are missing details, potentially. Therefore, this patent is not to be restricted to addressing the proposed etiological hypothesis, as other etiological processes are possible.
Prior art in the patent literature and in the published medical literature for therapy of MS has no example of therapy that stops and reverses the progressive accumulation of disability.
A scoping experiment in therapy by parenteral injection of at a dose of between 1 μg and 2.5 g daily AdoCbl into a human subject with clinically definite MS in the secondary progressive stage was conducted.

Assay [2] relates to Chronic Progressive forms of MS. The following applies: human trials reported in the literature; cited from earlier work.
The subject of assay [3] is Relapsing Remitting Multiple Sclerosis (RRMS). The settings on record: human trials reported in the literature; cited from earlier work.

Turning to `C/C1=C2/[N-]C([C@H](CC(N)=O)[C@@]2(C)CCC(=O)NC[C@@H](C)OP(=O)([O-])O[C@H]2[C@@H](O)[C@@H](n3cnc4cc(C)c(C)cc43)O[C@@H]2CO)[C@]2(C)N=C(/C(C)=C3N=C(/C=C4N=C1[C@@H](CCC(N)=O)C\4(C)C)[C@@H](CCC(N)=O)[C@]\3(C)CC(N)=O)[C@@H](CCC(N)=O)[C@]2(C)CC(N)=O.[CH2-][C@H]1O[C@@H](n2cnc3c(N)ncnc32)[C@@H](O)[C@@H]1O.[Co+3]` [AdoCbl, (5′-deoxy-5′-adenosyl) cobamide], the ambulation entry in assay [1] (5000 mcg of AdoCbl daily, patient was marginally ambulatory with a rollator before) is “ambulatory and does not need a wheelchair”. Further, the “effect on progression / accumulation of disability in MS” value in assay [1] (AdoCbl by itself, single SPMS patient, 98% pure AdoCbl, for more than one year) is “dramatic therapeutic effect; also recorded: stops the accumulation of disability and substantially reverses disability; also recorded: stopped and reversed chronic progression of MS; also recorded: effectiveness in stopping and even reversing the progressive accumulation of neurological damage”. Also, the “ability to raise right hand” value in assay [1] (daily injections of 1000 mcg of AdoCbl, after three days, single SPMS patient) was “able to raise their right hand above their head”. In addition, the “recovery of lost abilities and MS symptoms” value in assay [1] (injection size increased to 5000 mcg of AdoCbl daily after three days, Copaxone stopped for about two months, single SPMS patient) was “has recovered memory, cognition, normal balance, does not experience fatigue, no longer has nocturia, has recovered some ability with the right leg, is able to write with the right hand, use a computer keyboard with that right hand, and eat with a fork in the right hand”. The “recovery of abilities and symptoms (summary statement)” value in assay [1] (parenteral injection, dose of between 1 μg and 2.5 g daily AdoCbl, human subject, secondary progressive MS) was “regained physical abilities lost years before, regained memory and cognitive abilities, and had complete recovery from many common symptoms of MS such as fatigue and poor balance”. The “need for continued AdoCbl injections” value in assay [1] (single SPMS patient) is on record as “necessary to prevent relapse to the common symptoms of MS”.

With Copolymer-1, the “benefit in chronic progressive MS” value in assay [2] is “no effective benefit”. Moreover, the “effect on rate of relapse” value in assay [3] is “effective in lowering the rate of relapse”.
